#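 How tested: cells in 96-well plates exposed to compound for 48 hours at five concentrations. GI50 = concentration required for 50% inhibition of growth. The concentration for full growth arrest is given as TGI.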
# Tests used:
# Assay in all cases: NCI-60 cell line screen, 48 h
# SK-MEL-28 melanoma = tested on: SK-MEL-28 melanoma
# SF-539 CNS = tested on: SF-539 CNS
# SW-620 colon = tested on: SW-620 colon
# 786-0 renal = tested on: 786-0 renal
# HT29 colon = tested on: HT29 colon
# SNB-75 CNS = tested on: SNB-75 CNS
# NCI-H23 lung = tested on: NCI-H23 lung
# SF-268 CNS = tested on: SF-268 CNS
# SK-MEL-5 melanoma = tested on: SK-MEL-5 melanoma
# BT-549 breast = tested on: BT-549 breast
# UO-31 renal = tested on: UO-31 renal
# HOP-62 NSCLC = tested on: HOP-62 NSCLC
# M14 melanoma = tested on: M14 melanoma
# HCT-116 colon = tested on: HCT-116 colon
# KM12 colon = tested on: KM12 colon
# SF-295 CNS = tested on: SF-295 CNS
# IGROV1 ovarian = tested on: IGROV1 ovarian
# A549 NSCLC = tested on: A549 NSCLC
# MOLT-4 leukemia = tested on: MOLT-4 leukemia
# RXF 393 renal = tested on: RXF 393 renal
# OVCAR-5 ovarian = tested on: OVCAR-5 ovarian
# TK-10 renal = tested on: TK-10 renal
# A498 renal = tested on: A498 renal
# MDA-MB-435 = tested on: MDA-MB-435
# OVCAR-4 ovarian = tested on: OVCAR-4 ovarian
# RPMI-8226 leukemia = tested on: RPMI-8226 leukemia
# SK-OV-3 ovarian = tested on: SK-OV-3 ovarian
# UACC-257 melanoma = tested on: UACC-257 melanoma
# EKVX NSCLC = tested on: EKVX NSCLC
# OVCAR-8 ovarian = tested on: OVCAR-8 ovarian
# SK-MEL-2 melanoma = tested on: SK-MEL-2 melanoma
# SN12C renal = tested on: SN12C renal
# U251 CNS = tested on: U251 CNS
# MDA-MB-231 breast = tested on: MDA-MB-231 breast
# HCT-15 colon = tested on: HCT-15 colon
# NCI/ADR-RES ovarian = tested on: NCI/ADR-RES ovarian
# MALME-3M melanoma = tested on: MALME-3M melanoma
# NCI-H226 lung = tested on: NCI-H226 lung
# CAKI-1 renal = tested on: CAKI-1 renal
# SNB-19 CNS = tested on: SNB-19 CNS
# NCI-H522 lung = tested on: NCI-H522 lung
# PC-3 prostate = tested on: PC-3 prostate
# CCRF-CEM leukemia = tested on: CCRF-CEM leukemia
# HOP-92 NSCLC = tested on: HOP-92 NSCLC
# LOX IMVI melanoma = tested on: LOX IMVI melanoma
# K-562 leukemia = tested on: K-562 leukemia
# HCC-2998 colon = tested on: HCC-2998 colon
# OVCAR-3 ovarian = tested on: OVCAR-3 ovarian
# NCI-H460 lung = tested on: NCI-H460 lung
# ACHN renal = tested on: ACHN renal
# COLO 205 colon = tested on: COLO 205 colon
# MCF7 breast = tested on: MCF7 breast
# T-47D breast = tested on: T-47D breast
# DU-145 prostate = tested on: DU-145 prostate
# UACC-62 melanoma = tested on: UACC-62 melanoma
# HS 578T breast = tested on: HS 578T breast
# SR leukemia = tested on: SR leukemia
smiles,measurement,setting,value
CCNCCS(=O)(=O)NC[C@@]1(c2ccccc2)SC(NC(=O)C(C)(C)C)=NN1C(=O)C(C)(C)C,GI50,SK-MEL-28 melanoma,11.3 µM
same,TGI,SK-MEL-28 melanoma,> 100 µM
same,GI50,SF-539 CNS,< 0.01 µM
same,TGI,SF-539 CNS,0.768 µM
same,GI50,SW-620 colon,< 0.01 µM
same,TGI,SW-620 colon,> 100 µM
same,GI50,786-0 renal,0.341 µM
same,TGI,786-0 renal,> 100 µM
same,GI50,HT29 colon,< 0.01 µM
same,TGI,HT29 colon,> 100 µM
same,GI50,SNB-75 CNS,< 0.0137 µM
same,TGI,SNB-75 CNS,> 73.8 µM
same,GI50,NCI-H23 lung,0.0282 µM
same,TGI,NCI-H23 lung,> 100 µM
same,GI50,SF-268 CNS,< 0.01 µM
same,TGI,SF-268 CNS,> 100 µM
same,GI50,SK-MEL-5 melanoma,< 0.01 µM
same,TGI,SK-MEL-5 melanoma,20.3 µM
same,GI50,BT-549 breast,0.357 µM
same,TGI,BT-549 breast,> 100 µM
same,GI50,UO-31 renal,18.8 µM
same,TGI,UO-31 renal,> 100 µM
same,GI50,HOP-62 NSCLC,0.0353 µM
same,TGI,HOP-62 NSCLC,> 100 µM
same,GI50,M14 melanoma,< 0.01 µM
same,TGI,M14 melanoma,0.0209 µM
same,GI50,HCT-116 colon,< 0.01 µM
same,TGI,HCT-116 colon,> 100 µM
same,GI50,KM12 colon,< 0.01 µM
same,TGI,KM12 colon,> 100 µM
same,GI50,SF-295 CNS,< 0.01 µM
same,TGI,SF-295 CNS,1.16 µM
same,GI50,IGROV1 ovarian,2.9 µM
same,TGI,IGROV1 ovarian,> 100 µM
same,GI50,A549 NSCLC,< 0.01 µM
same,TGI,A549 NSCLC,> 100 µM
same,GI50,MOLT-4 leukemia,< 0.0139 µM
same,TGI,MOLT-4 leukemia,> 100 µM
same,GI50,RXF 393 renal,< 0.0223 µM
same,TGI,RXF 393 renal,> 62.2 µM
same,GI50,OVCAR-5 ovarian,0.138 µM
same,TGI,OVCAR-5 ovarian,> 100 µM
same,GI50,TK-10 renal,19.3 µM
same,TGI,TK-10 renal,> 100 µM
same,GI50,A498 renal,< 0.01 µM
same,TGI,A498 renal,53.4 µM
same,GI50,MDA-MB-435,< 0.01 µM
same,TGI,MDA-MB-435,< 0.01 µM
same,GI50,OVCAR-4 ovarian,35.5 µM
same,TGI,OVCAR-4 ovarian,> 100 µM
same,GI50,RPMI-8226 leukemia,< 0.01 µM
same,TGI,RPMI-8226 leukemia,> 100 µM
same,GI50,SK-OV-3 ovarian,< 0.01 µM
same,TGI,SK-OV-3 ovarian,> 100 µM
same,GI50,UACC-257 melanoma,11.8 µM
same,TGI,UACC-257 melanoma,> 76.9 µM
same,GI50,EKVX NSCLC,< 0.0314 µM
same,TGI,EKVX NSCLC,> 100 µM
same,GI50,OVCAR-8 ovarian,< 0.0117 µM
same,TGI,OVCAR-8 ovarian,> 100 µM
same,GI50,SK-MEL-2 melanoma,< 0.01 µM
same,TGI,SK-MEL-2 melanoma,28.4 µM
same,GI50,SN12C renal,< 0.01 µM
same,TGI,SN12C renal,> 100 µM
same,GI50,U251 CNS,< 0.01 µM
same,TGI,U251 CNS,> 100 µM
same,GI50,MDA-MB-231 breast,< 0.01 µM
same,TGI,MDA-MB-231 breast,28.1 µM
same,GI50,HCT-15 colon,0.399 µM
same,TGI,HCT-15 colon,> 100 µM
same,GI50,NCI/ADR-RES ovarian,4.11 µM
same,TGI,NCI/ADR-RES ovarian,> 45.8 µM
same,GI50,MALME-3M melanoma,10.6 µM
same,TGI,MALME-3M melanoma,30.2 µM
same,GI50,NCI-H226 lung,> 100 µM
same,TGI,NCI-H226 lung,> 100 µM
same,GI50,CAKI-1 renal,0.694 µM
same,TGI,CAKI-1 renal,> 100 µM
same,TGI,SNB-19 CNS,> 100 µM
same,GI50,NCI-H522 lung,< 0.01 µM
same,TGI,NCI-H522 lung,< 0.01 µM
same,GI50,PC-3 prostate,< 0.01 µM
same,TGI,PC-3 prostate,> 100 µM
same,GI50,CCRF-CEM leukemia,< 0.01 µM
same,TGI,CCRF-CEM leukemia,> 100 µM
same,TGI,HOP-92 NSCLC,> 82.1 µM
same,GI50,LOX IMVI melanoma,< 0.0285 µM
same,TGI,LOX IMVI melanoma,> 47.3 µM
same,GI50,K-562 leukemia,< 0.01 µM
same,TGI,K-562 leukemia,> 100 µM
same,GI50,HCC-2998 colon,< 0.01 µM
same,TGI,HCC-2998 colon,> 51.2 µM
same,GI50,OVCAR-3 ovarian,< 0.01 µM
same,TGI,OVCAR-3 ovarian,> 100 µM
same,GI50,NCI-H460 lung,< 0.01 µM
same,TGI,NCI-H460 lung,> 41.9 µM
same,GI50,ACHN renal,4.9 µM
same,TGI,ACHN renal,> 100 µM
same,GI50,COLO 205 colon,< 0.01 µM
same,TGI,COLO 205 colon,12.1 µM
same,GI50,MCF7 breast,< 0.01 µM
same,TGI,MCF7 breast,> 100 µM
same,GI50,T-47D breast,< 0.01 µM
same,TGI,T-47D breast,> 100 µM
same,GI50,DU-145 prostate,< 0.0159 µM
same,TGI,DU-145 prostate,> 100 µM
same,GI50,UACC-62 melanoma,< 0.01 µM
same,TGI,UACC-62 melanoma,> 100 µM
same,GI50,HS 578T breast,< 0.01 µM
same,TGI,HS 578T breast,> 100 µM
same,GI50,SR leukemia,< 0.01 µM
same,TGI,SR leukemia,22.3 µM
